# Results: article PMC5218480 (PLoS ONE, 2017)
# Tested on: MV-4-11 cells
# Assay: Gene expression microarray analysis (Affymetrix PrimeView) and GSEA
# Format: cell-based, human
# Parameters: RFU PODN (11730768_x_at) / Fold change /veh PODN (11730768_x_at) / RFU LINC00158 (11744669_a_at) / Fold change /veh LINC00158 (11744669_a_at) / RFU DUSP10 (11751237_a_at) / Fold change /veh DUSP10 (11751237_a_at) / RFU ID3 (11757404_x_at) / Fold change /veh ID3 (11757404_x_at) / RFU PLEKHG5 (11737974_s_at) / Fold change /veh PLEKHG5 (11737974_s_at) / RFU LRRC4B (11730491_at) / Fold change /veh LRRC4B (11730491_at) / RFU GIMAP4 (11747438_a_at) / Fold change /veh GIMAP4 (11747438_a_at) / RFU KRT8 (11758183_x_at) / Fold change /veh KRT8 (11758183_x_at) / RFU CNN1 (11734310_a_at) / Fold change /veh CNN1 (11734310_a_at) / RFU VPS37D (11726825_at) / Fold change /veh VPS37D (11726825_at) / RFU C10orf10 (11716522_x_at) / Fold change /veh C10orf10 (11716522_x_at) / RFU KIR2DL2 /// KIR2DL4 /// KIR2DL5A /// KIR2DL5B /// KIR2DS1 /// KIR2DS2 /// KIR2DS3 /// KIR2DS4 /// KIR3DL3 /// KIR3DL3 /// KIR3DS1 (11738374_at) / Fold change /veh KIR2DL2 /// KIR2DL4 /// KIR2DL5A /// KIR2DL5B /// KIR2DS1 /// KIR2DS2 /// KIR2DS3 /// KIR2DS4 /// KIR3DL3 /// KIR3DL3 /// KIR3DS1 (11738374_at) / RFU C1QL1 (11718748_at) / Fold change /veh C1QL1 (11718748_at) / RFU TMPRSS4 (11747572_a_at) / Fold change /veh TMPRSS4 (11747572_a_at) / RFU HAMP (11756126_x_at) / Fold change /veh HAMP (11756126_x_at) / RFU RNFT2 (11725882_a_at) / Fold change /veh RNFT2 (11725882_a_at) / RFU NR4A2 (11747474_a_at) / Fold change /veh NR4A2 (11747474_a_at) / RFU ABCC12 (11746883_a_at) / Fold change /veh ABCC12 (11746883_a_at) / RFU TMEM136 (11760407_x_at) / Fold change /veh TMEM136 (11760407_x_at) / RFU CLDN22 /// WWC2 (11732394_at) / Fold change /veh CLDN22 /// WWC2 (11732394_at) / RFU HLA-DPB1 (11760878_x_at) / Fold change /veh HLA-DPB1 (11760878_x_at) / RFU SPINT1 (11716480_a_at) / Fold change /veh SPINT1 (11716480_a_at) / RFU GAP43 (11754022_s_at) / Fold change /veh GAP43 (11754022_s_at) / RFU A4GNT (11735810_at) / Fold change /veh A4GNT (11735810_at) / RFU PRB3 (11715151_x_at) / Fold change /veh PRB3 (11715151_x_at) / RFU TUBB4B (11761932_at) / Fold change /veh TUBB4B (11761932_at) / RFU CAPN14 (11732068_a_at) / Fold change /veh CAPN14 (11732068_a_at) / RFU TMCC2 (11721928_a_at) / Fold change /veh TMCC2 (11721928_a_at) / RFU IRGQ (11745062_a_at) / Fold change /veh IRGQ (11745062_a_at) / RFU FAM174B (11720279_a_at) / Fold change /veh FAM174B (11720279_a_at) / RFU TMPRSS4 (11748680_a_at) / Fold change /veh TMPRSS4 (11748680_a_at) / RFU FAM212B (11763350_a_at) / Fold change /veh FAM212B (11763350_a_at) / RFU PLEKHG5 (11743358_a_at) / Fold change /veh PLEKHG5 (11743358_a_at) / RFU ZSCAN30 (11745921_a_at) / Fold change /veh ZSCAN30 (11745921_a_at) / RFU CMKLR1 (11741424_a_at) / Fold change /veh CMKLR1 (11741424_a_at) / RFU LOC101060620 /// MAPK8IP1 (11723275_at) / Fold change /veh LOC101060620 /// MAPK8IP1 (11723275_at) / RFU SPTSSB (11747773_x_at) / Fold change /veh SPTSSB (11747773_x_at) / RFU PRSS12 (11739890_at) / Fold change /veh PRSS12 (11739890_at) / RFU BIN1 (11741810_x_at) / Fold change /veh BIN1 (11741810_x_at) / RFU WNT11 (11732464_a_at) / Fold change /veh WNT11 (11732464_a_at) / RFU C10orf10 (11716521_a_at) / Fold change /veh C10orf10 (11716521_a_at) / RFU C5orf56 (11738089_at) / Fold change /veh C5orf56 (11738089_at) / RFU CYB561 (11721691_x_at) / Fold change /veh CYB561 (11721691_x_at) / RFU ANKRD19P (11752326_a_at) / Fold change /veh ANKRD19P (11752326_a_at) / RFU OR2T12 /// OR2T33 /// OR2T8 (11738714_s_at) / Fold change /veh OR2T12 /// OR2T33 /// OR2T8 (11738714_s_at) / RFU VCAN (11748164_a_at) / Fold change /veh VCAN (11748164_a_at) / RFU JSRP1 (11732532_at) / Fold change /veh JSRP1 (11732532_at) / RFU KRTAP10-11 (11738290_x_at) / Fold change /veh KRTAP10-11 (11738290_x_at) / RFU MYO3A (11730013_a_at) / Fold change /veh MYO3A (11730013_a_at) / RFU EBF3 (11725865_a_at) / Fold change /veh EBF3 (11725865_a_at) / RFU CAMK2N1 (11719241_x_at) / Fold change /veh CAMK2N1 (11719241_x_at) / RFU C5orf56 (11738088_a_at) / Fold change /veh C5orf56 (11738088_a_at) / RFU OLFML3 (11715873_a_at) / Fold change /veh OLFML3 (11715873_a_at) / RFU LOC100653217 /// NTM (11731650_a_at) / Fold change /veh LOC100653217 /// NTM (11731650_a_at) / RFU MAPK11 (11762145_a_at) / Fold change /veh MAPK11 (11762145_a_at) / RFU FIZ1 (11724087_x_at) / Fold change /veh FIZ1 (11724087_x_at) / RFU OASL (11726364_x_at) / Fold change /veh OASL (11726364_x_at) / RFU SOX15 (11748057_x_at) / Fold change /veh SOX15 (11748057_x_at) / RFU CD79A (11719716_a_at) / Fold change /veh CD79A (11719716_a_at) / RFU HIST1H1D (11736915_at) / Fold change /veh HIST1H1D (11736915_at) / RFU CASKIN2 (11723855_a_at) / Fold change /veh CASKIN2 (11723855_a_at) / RFU LOC730098 (11760151_x_at) / Fold change /veh LOC730098 (11760151_x_at) / RFU OR4N2 (11742367_at) / Fold change /veh OR4N2 (11742367_at) / RFU PRRT2 (11749266_a_at) / Fold change /veh PRRT2 (11749266_a_at) / RFU SNX32 (11753110_a_at) / Fold change /veh SNX32 (11753110_a_at) / RFU CDHR5 (11726645_a_at) / Fold change /veh CDHR5 (11726645_a_at) / RFU RCAN1 (11760418_a_at) / Fold change /veh RCAN1 (11760418_a_at) / RFU FAM167A (11723789_a_at) / Fold change /veh FAM167A (11723789_a_at) / RFU FAM26E (11764081_at) / Fold change /veh FAM26E (11764081_at) / RFU ISYNA1 (11749810_s_at) / Fold change /veh ISYNA1 (11749810_s_at) / RFU ACY1 (11761880_at) / Fold change /veh ACY1 (11761880_at) / RFU 11764098_at / Fold change /veh 11764098_at / RFU SAMD14 (11745864_x_at) / Fold change /veh SAMD14 (11745864_x_at) / RFU NPB (11741838_a_at) / Fold change /veh NPB (11741838_a_at) / RFU TMPRSS6 (11731388_a_at) / Fold change /veh TMPRSS6 (11731388_a_at) / RFU KRTAP10-2 (11738614_at) / Fold change /veh KRTAP10-2 (11738614_at) / RFU ARHGAP8 /// PRR5-ARHGAP8 (11727945_x_at) / Fold change /veh ARHGAP8 /// PRR5-ARHGAP8 (11727945_x_at) / RFU KRTAP5-7 /// NADSYN1 (11734609_at) / Fold change /veh KRTAP5-7 /// NADSYN1 (11734609_at) / RFU RASL12 (11751679_a_at) / Fold change /veh RASL12 (11751679_a_at) / RFU CDKN2B (11736163_a_at) / Fold change /veh CDKN2B (11736163_a_at) / RFU PRF1 (11729649_at) / Fold change /veh PRF1 (11729649_at) / RFU, ZNF638 /// ZNF638-IT1 / Fold change vs veh, ZNF638 /// ZNF638-IT1 / RFU, PANK3 / Fold change vs veh, PANK3 / RFU, SH3YL1 / Fold change vs veh, SH3YL1 / RFU, ZEB2 / Fold change vs veh, ZEB2 / RFU, NRIP1 / Fold change vs veh, NRIP1 / RFU, PTTG1IP / Fold change vs veh, PTTG1IP / RFU, CAPN2 / Fold change vs veh, CAPN2 / RFU, MED14 / Fold change vs veh, MED14 / RFU, SNORA58 / Fold change vs veh, SNORA58 / RFU, C1orf63 / Fold change vs veh, C1orf63 / RFU, LRRFIP1 / Fold change vs veh, LRRFIP1 / RFU, NDUFAF7 / Fold change vs veh, NDUFAF7 / RFU, SLC12A2 / Fold change vs veh, SLC12A2 / RFU, IBTK / Fold change vs veh, IBTK / RFU, ESF1 / Fold change vs veh, ESF1 / Fold change vs veh, TMEM50B / RFU, TAOK1 / Fold change vs veh, TAOK1 / RFU, ACBD3 / Fold change vs veh, ACBD3 / RFU, TMA16 / Fold change vs veh, TMA16 / RFU, RWDD3 / Fold change vs veh, RWDD3 / RFU, BCAT1 / Fold change vs veh, BCAT1 / RFU, EDEM3 / Fold change vs veh, EDEM3 / RFU, TMEM33 / Fold change vs veh, TMEM33 / RFU, WDR75 / Fold change vs veh, WDR75 / RFU, AHCTF1 / Fold change vs veh, AHCTF1 / RFU, TFRC / Fold change vs veh, TFRC / RFU, ZDHHC17 / Fold change vs veh, ZDHHC17 / RFU, NOM1 / Fold change vs veh, NOM1 / RFU, ARL8B / Fold change vs veh, ARL8B / RFU, ZBTB11 / Fold change vs veh, ZBTB11 / RFU, TAMM41 / Fold change vs veh, TAMM41 / RFU, KIAA1704 /// LOC100996395 / Fold change vs veh, KIAA1704 /// LOC100996395 / RFU, ING1 / Fold change vs veh, ING1 / RFU, TRMT61B / Fold change vs veh, TRMT61B / RFU, FUBP3 / Fold change vs veh, FUBP3 / RFU, TP53 / Fold change vs veh, TP53 / RFU, TNKS2 / Fold change vs veh, TNKS2 / RFU, ZFP14 / Fold change vs veh, ZFP14 / RFU, ACTR2 / Fold change vs veh, ACTR2 / RFU, PPP3R1 / Fold change vs veh, PPP3R1 / RFU, PIK3R1 / Fold change vs veh, PIK3R1 / RFU, HNRNPA1 / Fold change vs veh, HNRNPA1 / RFU, RNF170 / Fold change vs veh, RNF170 / RFU, ZNF28 / Fold change vs veh, ZNF28 / RFU, RNGTT / Fold change vs veh, RNGTT / RFU, OGT / Fold change vs veh, OGT / RFU, BRD1 / Fold change vs veh, BRD1 / RFU, MARS / Fold change vs veh, MARS / RFU, ZNF655 / Fold change vs veh, ZNF655 / RFU, FAHD1 / Fold change vs veh, FAHD1 / RFU, BDP1 / Fold change vs veh, BDP1 / RFU, LRRCC1 / Fold change vs veh, LRRCC1 / RFU, ARID1A / Fold change vs veh, ARID1A / RFU, ZNF146 / Fold change vs veh, ZNF146 / RFU, ZNF330 / Fold change vs veh, ZNF330 / RFU, GPN3 / Fold change vs veh, GPN3 / RFU, C9orf123 / Fold change vs veh, C9orf123 / RFU, N4BP2L2 / Fold change vs veh, N4BP2L2 / RFU, ARFIP1 / Fold change vs veh, ARFIP1 / RFU, FAM179B / Fold change vs veh, FAM179B / RFU, BCL10 / Fold change vs veh, BCL10 / RFU, UHRF1BP1L / Fold change vs veh, UHRF1BP1L / RFU, BET1 / Fold change vs veh, BET1 / RFU, CNOT2 / Fold change vs veh, CNOT2 / RFU, ZNF268 / Fold change vs veh, ZNF268 / Fold change vs veh, ZNF507 / RFU, DGCR2 / Fold change vs veh, DGCR2 / RFU, WDSUB1 / Fold change vs veh, WDSUB1 / Fold change vs veh, HSP90B1 /// MIR3652 / RFU, ADSS / Fold change vs veh, ADSS / RFU, GK / Fold change vs veh, GK / RFU, ZNF148 / Fold change vs veh, ZNF148 / RFU, TAF9 / Fold change vs veh, TAF9 / RFU, SLC1A5 / Fold change vs veh, SLC1A5 / RFU, SLMO2 / Fold change vs veh, SLMO2 / RFU, ABCC4 / Fold change vs veh, ABCC4 / RFU, LOC101060439 /// RAP1B / Fold change vs veh, LOC101060439 /// RAP1B / RFU, RFX7 / Fold change vs veh, RFX7 / RFU, GTPBP10 / Fold change vs veh, GTPBP10 / RFU, CNEP1R1 / Fold change vs veh, CNEP1R1 / RFU, BIVM-ERCC5 /// ERCC5 / Fold change vs veh, BIVM-ERCC5 /// ERCC5 / RFU, ILF3 / Fold change vs veh, ILF3 / RFU 11762660_at / Fold change /veh 11762660_at / RFU VCAN (11757783_s_at) / Fold change /veh VCAN (11757783_s_at) / RFU DDX43 (11728927_at) / Fold change /veh DDX43 (11728927_at) / RFU KRT8 (11758188_x_at) / Fold change /veh KRT8 (11758188_x_at) / RFU NKD1 (11759106_at) / Fold change /veh NKD1 (11759106_at) / RFU SRD5A1 (11742802_a_at) / Fold change /veh SRD5A1 (11742802_a_at) / RFU TPSAB1 /// TPSB2 (11721975_s_at) / Fold change /veh TPSAB1 /// TPSB2 (11721975_s_at) / RFU GSTM3 (11746129_a_at) / Fold change /veh GSTM3 (11746129_a_at) / RFU IL23R (11737362_x_at) / Fold change /veh IL23R (11737362_x_at) / RFU TMEM51 (11727254_a_at) / Fold change /veh TMEM51 (11727254_a_at) / RFU PIWIL2 (11732686_x_at) / Fold change /veh PIWIL2 (11732686_x_at) / RFU ORM1 (11744905_x_at) / Fold change /veh ORM1 (11744905_x_at) / RFU CCDC152 (11743942_at) / Fold change /veh CCDC152 (11743942_at) / RFU ECM1 (11717891_a_at) / Fold change /veh ECM1 (11717891_a_at) / RFU IL23R (11748794_a_at) / Fold change /veh IL23R (11748794_a_at) / RFU TNFAIP8L3 (11732012_x_at) / Fold change /veh TNFAIP8L3 (11732012_x_at) / RFU MBOAT4 (11741988_at) / Fold change /veh MBOAT4 (11741988_at) / RFU 11764193_at / Fold change /veh 11764193_at / RFU TMEM53 (11763286_at) / Fold change /veh TMEM53 (11763286_at) / RFU MAGEB2 (11727129_at) / Fold change /veh MAGEB2 (11727129_at) / RFU TMEM200A (11744735_a_at) / Fold change /veh TMEM200A (11744735_a_at) / RFU CCDC152 (11751479_a_at) / Fold change /veh CCDC152 (11751479_a_at) / RFU FAM211A (11726209_a_at) / Fold change /veh FAM211A (11726209_a_at) / RFU RGS16 (11746705_a_at) / Fold change /veh RGS16 (11746705_a_at) / RFU VCAN (11755009_s_at) / Fold change /veh VCAN (11755009_s_at) / RFU RHOB (11743442_s_at) / Fold change /veh RHOB (11743442_s_at) / RFU RGS16 (11720943_a_at) / Fold change /veh RGS16 (11720943_a_at) / RFU RGS16 (11720944_at) / Fold change /veh RGS16 (11720944_at) / RFU, VPS4B / Fold change vs veh, VPS4B / RFU, CREB1 / Fold change vs veh, CREB1 / RFU, DNAJC13 / Fold change vs veh, DNAJC13 / RFU, GNAQ / Fold change vs veh, GNAQ / RFU, CDK5R1 / Fold change vs veh, CDK5R1 / RFU, ZRANB3 / Fold change vs veh, ZRANB3 / RFU, CUL4A / Fold change vs veh, CUL4A / RFU, CCNY / Fold change vs veh, CCNY / RFU, UFL1 / Fold change vs veh, UFL1 / RFU, COG3 / Fold change vs veh, COG3 / RFU, DIAPH2 / Fold change vs veh, DIAPH2 / RFU, SKA2 / Fold change vs veh, SKA2 / RFU, AFF3 / Fold change vs veh, AFF3 / RFU, LMF1 / Fold change vs veh, LMF1 / RFU, IPO11 / Fold change vs veh, IPO11 / RFU, DFFB / Fold change vs veh, DFFB / RFU, FOXP1 / Fold change vs veh, FOXP1 / RFU, CARD8 / Fold change vs veh, CARD8 / RFU, STRN3 / Fold change vs veh, STRN3 / RFU, ADK / Fold change vs veh, ADK / RFU, RASSF2 / Fold change vs veh, RASSF2 / RFU, WIPF1 / Fold change vs veh, WIPF1 / RFU, LARP1B / Fold change vs veh, LARP1B / RFU, RASA1 / Fold change vs veh, RASA1 / RFU, RB1 / Fold change vs veh, RB1 / RFU, PPFIA1 / Fold change vs veh, PPFIA1 / RFU, MAT2A / Fold change vs veh, MAT2A / RFU, CCT5 / Fold change vs veh, CCT5 / RFU, WDR92 / Fold change vs veh, WDR92 / RFU, CUX1 / Fold change vs veh, CUX1 / RFU, TTC7A / Fold change vs veh, TTC7A / RFU, TMEM135 / Fold change vs veh, TMEM135 / RFU, DEPTOR / Fold change vs veh, DEPTOR / RFU, CPM / Fold change vs veh, CPM / RFU, DNAJB6 / Fold change vs veh, DNAJB6 / RFU, CACNA2D3 / Fold change vs veh, CACNA2D3 / RFU, DTX4 / Fold change vs veh, DTX4 / RFU, TFCP2 / Fold change vs veh, TFCP2 / RFU, GMCL1 /// GMCL1P1 / Fold change vs veh, GMCL1 /// GMCL1P1 / RFU, AEBP2 / Fold change vs veh, AEBP2 / RFU, SNHG1 /// SNORD22 /// SNORD25 /// SNORD26 /// SNORD27 /// SNORD28 /// SNORD29 /// SNORD31 / Fold change vs veh, SNHG1 /// SNORD22 /// SNORD25 /// SNORD26 /// SNORD27 /// SNORD28 /// SNORD29 /// SNORD31 / Fold change (Aza/veh), C12orf56 (ProbeSet 11735607_a_at) / Fold change (ACY-1035/veh), C12orf56 (ProbeSet 11735607_a_at) / Fold change (Aza/veh), FGFR1OP (ProbeSet 11751329_s_at) / Fold change (ACY-1035/veh), FGFR1OP (ProbeSet 11751329_s_at) / Fold change (Aza/veh), VPS36 (ProbeSet 11739960_a_at) / Fold change (ACY-1035/veh), VPS36 (ProbeSet 11739960_a_at) / RFU SYPL1 (11715823_x_at) / Fold change /veh SYPL1 (11715823_x_at) / RFU IGFBP7 (11715501_s_at) / Fold change /veh IGFBP7 (11715501_s_at) / RFU REEP3 (11722064_at) / Fold change /veh REEP3 (11722064_at) / RFU IGLL1 (11728026_x_at) / Fold change /veh IGLL1 (11728026_x_at): dose or concentration left out as unconfirmed
# Details: ProbeSet 11722463_a_at; LIST B
compound,measurement,value
Nc1ncn([C@@H]2O[C@H](CO)[C@@H](O)[C@H]2O)c(=O)n1 [azacitidine],"Fold change vs veh, TNKS2",0.86
